Measured values: US10143668B2, “Hydroxy-substituted amino and ammonium derivatives and their medical use” (GRI BIO, INC., priority 2011, dated 2018)
Several values for one entry are separate records, joined by “and”; a condition that tells them apart may be missing. Identical values can stand only once. Counter-ions that a name gives are not always drawn. Like-named read-outs stand apart in the source and are kept apart here. Marks after values point to notes of the source that are not given here.

What was measured:
[1] = test system: RBL-2H3 cells; assay: Maximum tolerated concentration (cytotoxicity by lactate dehydrogenase release); format: cell-based, rat; details: for MTC (maximum tolerated concentration): highest concentration not causing cytotoxicity (LDH release); for SI (safety index): ratio between MTC and IC50
From the text: The safety index (SI) of a test compound is the ratio between the maximum tolerated concentration and the IC50 and is used as a measure of the relative safety of the test compound.

[2] = test system: RBL-2H3 cells; assay: Inhibition of mast cell degranulation (β-hexosaminidase release); format: cell-based; details: Rattus norvegicus, RBL-2H3 cells sensitized with anti-DNP IgE, triggered with DNP-HSA
From the text: Mast cells are key effector cells involved in allergic and inflammatory diseases, and the Rat Basophilic Leukemia clone 2H3 (RBL-2H3) cell line is a commonly used model of allergen dependent immune modulator release (degranulation) in mast cells. On their surface, they express the high affinity receptor for IgE (FcεRI) Upon binding of antigen-specific IgE to the receptor, cells become sensitized to the IgE specific antigen (allergen). When IgE-sensitized cells then encounter multivalent antigen, the antigen clusters IgE-FcεRI complexes and initiates a signal transduction cascade that leads to degranulation, that is, the release of inflammatory mediators, such as cytokines, eicosanoids, histamine and enzymes. The assay can be used as a screening method to identify immune-modulating compounds, in particular compounds useful in the medical management of allergic and inflammatory diseases and asthma. β-hexosaminidase was previously shown to be released with the same kinetics as histamine (Schwartz et al., J Immunology; 123:1445-1450 (1979)), thus offering a simple means to monitor degranulation. The RBL-2H3 cell line has been successfully used to identify compounds with anti-allergic activity (Choo et al. Planta Med., 69:518-522 (2003)).
Cell Culture: RBL-2H3 cells obtained from the German Collection of Microorganisms and Cell Cultures (ACC312) (Braunschweig, Germany) were maintained in 70% Minimum Essential Medium with Earle's Salts, 20% RPMI 1640 Medium, 10% FBS and 2 mM L-glutamine in 95% air/5% CO2 at 37° C. and routinely checked for mycoplasma contamination. Cells were passaged every 3-4 days; after washing cells once with 35 ml PBS cells were incubated 8 min with 5 ml 0.05% Trypsin-EDTA solution at 37° C. Cells were removed from the incubator, 15 ml culture medium was added and cells were resuspended by repeated pipetting.
Cell seeding: cells were harvested with Trypsin-EDTA as described and 50-100 μl cell suspension seeded into Costar CellBind 24 well cluster plates (no. 3337). Plates were kept for 30 min at RT under the sterile hood before being transferred to the incubator. Cells were used within one or two days after seeding.
For sensitization, cells for immediate use were sensitized 6-12 h after plating; cells to be used the following day were sensitized 26-38 h after plating. Culture plates were removed from the incubator and checked for cell growth and contamination. The medium was discarded and cells were sensitized with anti-DNP IgE (0.4 μg/ml) in 0.4 ml culture medium overnight. Following overnight sensitization, cells were washed with 0.8 ml pre-warmed TyB and 0.38 ml test compound or vehicle control (supplemented or not with 1% FBS) were added to duplicate wells. Samples were adjusted to contain 1% vehicle for test compounds dissolved in organic solvents. Cells were incubated for 1 h at 37° C. At the end of the incubation period, cells were routinely stimulated with 20 μl DNP-HSA (2 μg/ml; final concentration 0.1 μg/ml) diluted in TyB and cells were incubated for 15 min at 37° C. Alternatively, cells were stimulated with 20 μl 5 μM ionomycin (final concentration 0.25 μM) or 20 μl 5 μM thapsigargin (final concentration 0.25 μM), both in the absence or presence of 20 nM PMA (final concentration). […]
MUG substrate solution, 100 μl, were added to supernatant and lysate samples and plates were incubated 30 min at 37° C. […] Fluorescene was measured at 365 nm excitation and 440 nm emmission wavelengths. […]

[3] = test system: allergic contact dermatitis response in mice; assay: Allergic contact dermatitis (TDI) model in mice, mouse ear swelling test; format: in vivo
Procedure: The anti-inflammatory and anti-allergic effects of compound 1a were assessed in a mouse model of allergic contact dermatitis, a response driven primarily by T helper type 2 (Th2) cells. […] In this model, an allergic dermatitis response is obtained by sensitizing mice to TDI and subsequently challenging them with antigen by topical administration onto the ears. A quantitative assessment of anti-inflammatory and anti-allergic effects of topically or orally administered test compounds is possible by measuring the resulting ear swelling.
Female BALB/c-mice were obtained from Charles River (Sulzfeld, Germany) at age 8 weeks. All animals were housed in groups of eight per cage at 22° C. with a 12 h light/dark-cycle. Water and a standard diet (Altromin, Lage/Lippe, Germany) were available ad libitum. All animals were acclimatized for one week before experimental procedures were commenced.
Experimental procedures for BALB/c mice housing, TDI sensitization and challenge, and measurement of ear thickness were performed as previously described (Baumer et al., J Pharm Pharmacol. 55:1107-1114 (2003)) with the following modifications. For active sensitization, 100 μL of 5% (w/v) TDI was administered to the shaved and stripped abdominal epidermis on day one, and for the next three consecutive days, 50 μL of 5% (w/v) TDI was applied. The allergic reaction was boosted 21 days later by application of 50 μL of 0.5% (w/v) TDI. For the examination of test compound effects, the left ears were used for the TDI challenge (20 μL of 0.5% in acetone) and ear thickness measured 3 h before and 24 h after challenge.
Administration time: to determine optimal time for administration treatment groups were treated orally by gavage with 100 mg/kg of compound 1a (suspended in 0.5% tylose, 10 mL/kg) 1, 4 or 16 h before topical TDI challenge. One group was treated with 100 mg/kg miltefosine orally, 16 h before challenge (based on available data for optimal administration time for miltefosine) and vehicle treated mice received tylose (10 mL/kg) orally, 4 h before challenge.
Comparison with dexamethasone: one group of mice was treated orally with compound 1a at 100 mg/kg suspended in 0.5% tylose, 4 h before topical TDI challenge. Vehicle treated mice received 0.5% tylose orally 4 h before challenge. As a positive control, dexamethasone was administered in saline solution at 1 mg/kg or 3 mg/kg, 2 h and 30 min before challenge and 1 h after challenge. The dose and dosing scheme for dexamethasone was based on previous experience showing a maximal effect in this model.
[…] The solution was applied, 2 h before topical TDI challenge by administration of 10 μl onto each of the inner and outer surfaces of the left ears. A vehicle group (n=5) was treated with propyleneglycol. As a positive control, diflorasone diacetate was administered at 0.01% (low dose) and 0.05% (high dose) in 20 μl acetone, 2 h before challenge. A basal control group was left untreated.
Mean and standard error of the mean (SEM) were calculated from individual ear edema values. Statistical evaluation was a one-way analysis of variance (ANOVA) (if the test for normal distribution was passed) or the Kruskal-Wallis one-way ANOVA on Ranks (if the normal distribution test failed). Both were followed by a post-hoc test (Dunnett's method or Dunn's test, respectively). A p<0.05 was considered to be significant.

[4] = test system: collagen type II-induced arthritis (CIA) in mice; details: prophylactic, 0.3 mg/kg intraperitoneally once daily
[5] = test system: DTH response in mice; format: in vivo; details: 24 h after challenge
Procedure: The anti-inflammatory and anti-allergic effects of compound 1a was assessed in a mouse model of skin delayed-type hypersensitivity (DTH) reactions and compared to a vehicle control and to the reference drug, dexamethasone. DTH reactions are antigen-specific cell-mediated immune responses, driven primarily by T helper type 1 (Th1) cells, similar to the tuberculin immunization response. The immune reaction induced by an ovalbumin challenge to animals previously sensitized with ovalbumin in Complete Freund's Adjuvant, is characterized by swelling (edema) at the site of challenge, e.g. the mouse ear. Dexamethasone, an anti-inflammatory steroid, reduces cell-mediated immune responses and was employed to validate the responsiveness of the assay to pharmacological treatment.
Female BALB/cJW mice were bred at the University of Lodz, Lodz, Poland and housed in groups of 8 in makrolon cages with a 12 h light-dark cycle. Mice were given free access to food (Agropol S. j., Motycz, Poland) and water.
Sensitization: The protein antigen, ovalbumin, was reconstituted in PBS at 4 mg/ml. An ovalbumin-CFA emulsion was prepared by mixing the protein solution with the CFA suspension at a ratio of 1:1, using two Luer-lock syringes. The emulsion was tested by putting a drop of emulsion onto PBS; if the emulsion remained as a tight droplet on the PBS, the emulsion was deemed ready. Mice were sensitized by subcutaneously injecting 25 μL of emulsion into each side of the tail (100 μg ovalbumin per mouse).
Challenge: On the sixth day after sensitization, DTH was elicited by challenging animals subcutaneously (gauge 30 needle, B. Braun Melsungen, Melsungen, Germany) in the left ears with 10 μL of a 1% suspension of heat-aggregated ovalbumin (HOVA) (100 μg ovalbumin per mouse). The right ears were administered subcutaneously with PBS and served to determine the individual differences in ear thicknesses. HOVA was prepared by heating a 5% solution of ovalbumin in saline for 1 h at 80° C. with occasional swirling. After cooling to room temperature and centrifugation (400 g, 10 min at 4° C.), the pellet was washed twice with saline, resuspended at 2% in PBS and aliquots stored at −30° C. Before injection, HOVA was diluted with an equal volume of PBS and sonicated. Ear thickness was measured with a precise spring-loaded caliper (Art. No. 7309, Mitutoyo, Kawasaki, Japan) before challenge, and 24 h after challenge.
Sensitization, challenge and ear thickness measurement were performed under anesthesia (ketamine 80 mg/kg plus xylazine 8 mg/kg, intraperitoneally).
The anti-inflammatory effects of compound 1a were compared to a vehicle control (0.5% methyl cellulose solution) and to the reference drug, dexamethasone. Test compound was given at 25 or 100 mg/kg orally by gavage (Art. No. 432093, Harvard Apparatus GmbH, March-Hugstetten, Germany) 16 h and 3 h before sensitization and then twice daily with the final dose given 3 h prior to ear challenge (a total of 14 administrations). Dexamethasone was given at 0.1 or 1 mg/kg orally by gavage 3 h before sensitization and once daily with the final dose given 3 h prior to antigen challenge (a total of 7 administrations). All administrations were given in a volume of 10 mL/kg.
To account for individual variability, the increase in right ear thickness, before and 24 h after administration of PBS, was subtracted from the HOVA-induced increase in left ear thickness. […]
Mean and standard deviation (SD) were calculated from individual ear edema values. […]

Row | Structure (SMILES) | MTC (maximum tolerated concentration) [1] [µM] | SI (safety index) [1] | IC50 [2] [µM] | Inhibition of mouse ear swelling ([3]; comparison with dexamethasone, 1 mg/kg oral) | Inhibition of mouse ear swelling ([3]; comparison with dexamethasone, 1 mg/kg oral, listed as dexamethasone) [%] | Inhibition of mouse ear swelling ([3]; comparison with dexamethasone, 3 mg/kg oral) | Inhibition of mouse ear swelling ([3]; comparison with dexamethasone, 3 mg/kg oral, listed as dexamethasone) [%] | clinical signs of arthritis [4] | Inhibition of mouse ear swelling ([5]; 0.1 mg/kg orally once daily) [%] | Inhibition of mouse ear swelling ([5]; 1.0 mg/kg orally once daily) [%] | inhibitory efficacy relative to 1a at its optimal administration time of 4 h ([3]; 100 mg/kg oral, 16 h before challenge) [%] | Inhibition of mouse ear swelling ([3]; administration time study, 100 mg/kg oral, 16 h before TDI challenge)
1 | CCCCCCCCCCCCCCN(C)CC(=O)N(C)C[C@H](O)[C@@H](O)[C@H](O)[C@H](O)CO [Compound 1b, N-(2-(Methyl(tetradecyl)amino)acetyl)-N-methyl-D-glucamine hydrotrifluoroacetate] | 50 | 10.2 | 4.9 | – | – | – | – | – | – | – | – | –
2 | CCCCCCCCCCCCN(C)CC(=O)N(C)C[C@H](O)[C@@H](O)[C@H](O)[C@H](O)CO [Compound 1c, N-(2-(Methyl(dodecyl)amino)acetyl)-N-methyl-D-glucamine hydrotrifluoroacetate] | 100 | 8.1 | 12.3 | – | – | – | – | – | – | – | – | –
3 | CCCCCCCCCCCCCC[N+](C)(C)CC(=O)N(C)CC(O)CO (stereo not drawn) [Compound 1d, N-(2-(Dimethyl(tetradecyl)ammonio)acetyl)-N-methyl-2,3-dihydroxypropylamine trifluoroacetate] | 75 | 24.2 | 3.1 | – | – | – | – | – | – | – | – | –
4 | C[C@@H]1C[C@H]2[C@@H]3CCC4=CC(=O)C=C[C@]4(C)[C@@]3(F)[C@@H](O)C[C@]2(C)[C@@]1(O)C(=O)CO [Dexamethasone, reference compound] | – | – | – | 78.6*** % | 78 | 87.1*** % | 87 | nearly completely suppressed | 14 | 53 | – | –
5 | CCCCCCCCCCCCCCCCOP(=O)([O-])OCC[N+](C)(C)C [Miltefosine, reference compound] | 25 | 6.0 | 4.2 | – | – | – | – | – | – | – | 75 | 47% and 47.3^§ %
